Source: patent US20040171089A1, “High-throughput screening assay for identifying substances capable of modulating cell survival and/or proliferation” (priority 2001, published 2004)
Entries after “also recorded” stand apart in the source; their conditions may differ.

Assays:
[1] = system: MDA MB 468 cells; assay: Fura-2 calcium imaging, MDA MB 468 cells; type: cell-based, human; settings: for effect on cytosolic calcium levels (in words): MDA MB 468 cells, FIG. 2a: IPAG 1-10 μM, rimcazole 10-30 μM, (+)-SKF 10,047 10 μM, (+)-pentazocine 10-30 μM, ibogaine 10-50 μM; for % increase of cytosolic calcium (peak 340/380 nm fura-2 ratio): MDA 468 cells
Description: Human mammary carcinoma (MDA MB 468) cells were obtained from ATCC, Manassas, Va., USA; catalogue number HTB-132; cells were grown in accordance with the manufacturer's instructions.
(§1) For calcium imaging experiments cells were plated onto poly-L-lysine coated coverslips (13 mm). Single cell imaging was performed utilizing a MiraCal Imaging facility (Life Science Resources, Cambridge, U.K.) with a Nikon Diaphot-TMD inverted epifluorescence microscope equipped with a ×40 oil immersion objective and Sutter filter wheel. The imager was equipped with a Lambert intensifier 1187 (Life Sciences Resources) providing a ×30 enhancement of the fluorescent signal, thus limiting phototoxicity.
(§2) Fura-2 acetoxymethyl ester (fura-2 AM) incubations with the cells were performed at 37° C. in a medium containing (in mM): 120 NaCl, 3.5 KCl, 0.4 KH2PO4, 5 NaHCO3, 1.2 Na2SO4, 15 glucose, 1.2 MgCl2, 1 CaCl2, and 20 TES [N-tris(hydroxymethyl) methyl-2-aminoethane sulphonic acid] pH adjusted to 7.4 with NaOH. Typically cells were incubated in 3 μM fura-2 AM for 25 min., which permitted sufficient accumulation of free fura-2 in the cell cytoplasm. Cells were then illuminated alternately at 340 and 380 nm with the emitted 505 nm light being detected by a photomultiplier. Free fura emits maximally when excited at 380 nm, whilst the calcium bound fura has a maximal emission when excited at 340 nm. Thus the ratio of emission when alternately excited at 340/380 nm is a measure of the calcium concentration in equilibrium with the chelator. Changes of intracellular calcium were quantified as the percentage increase of the fluorescent ratio (determined at ˜505 nm) obtained by exciting the test cells alternatively at 340 nm (optimal for calcium bound dye) and 380 nm.

[2] = system: human primary microvascular endothelial cells; assay: Fura-2 calcium imaging, microvascular endothelial cells; type: cell-based; settings: microvascular endothelial cells; FIG. 2b: IPAG 10 μM, rimcazole 10-30 μM, (+)-pentazocine 10-30 μM
Description: Human adult dermal microvascular endothelial cells (catalogue number CC-2543; cells had been characterised by tests for cell type markers: positive for acetylated LDL uptake, positive for factor VIII related antigen, negative for alpha smooth muscle actin)
as §1, §2

[3] = system: microvascular endothelial cells; settings: equimolar, 10 micromolar, GB0007842.8, WO 0174359; cited from earlier work
[4] = system: phospholipase C; assay: GFP-PH PLCdelta 1 relocalisation (PLC activation) in MDA MB 468 cells; type: cell-based, human; settings: for relocalisation of GFP-PH PLC delta 1 from membrane to cytosol: 100 μM, approximately 10 minutes, DMEM with 10% fetal bovine serum
Description: The inventors introduced a recombinant plasmid vector encoding a hybrid protein comprised of the pleckstrin homology (PH) domain of phospholipase C (PLC) delta 1 fused green fluorescent protein (GFP) (GFP-PH PLCdelta 1) into MDA MB 468 mammary carcinoma cells. A standard transfection method (Fugene-6—Roche) was used. […] Cells were maintained in DMEM with 10% fetal bovine serum at 37 deg C. in 5% CO2 before and during exposure to sigma ligands which were present at a range of concentrations. Effects on the GFP-PH PLCdelta 1 protein were studied in two ways: by time lapse microscopy (using a Leica inverted fluorescence microscope and a Hammamatsu Orca charge-coupled device camera, linked to an Improvision Open Lab image processing workstation). This enabled the time course of effects to be determined. […] Control cell populations received drug vehicle alone and were analysed at the same time points.
GFP-PH PLC delta 1—expressing MDA MB 468 cells were exposed to sigma antagonists in 1 mM and 0 mM (nominally calcium-free) buffer (as used for the calcium imaging experiments, described above) and monitored by time lapse imaging as above.

[5] = system: mammary epithelial cells; assay: MTS cell viability/proliferation assay, mammary epithelial cells; type: cell-based, human; settings: 1-10 μM
Description: Human mammary epithelial cells (catalogue number CC-2551; stain positive for cytokeratins 14, 18 and 19)
(§3) This was carried out using an MTS assay (reagents from Promega Corporation, Madison Wis., USA) which is a modification of the MTT assay (as described in Jacobson et al, 1994 EMBO J Vol 13 pp1899-1910). The assay depends on conversion of the MTS tetrazolium compound to a coloured formazan product in metabolically active cells; it is therefore an assay of viable cell number. A decline in values implies cell killing as long as cell disappearance by apoptosis in untreated cell populations is absent or negligible (as with most healthy primary cell populations).
Cells were seeded in the range 1.5×10^5-1.8×10^5 cells per ml of culture medium in 96 well microtitre plates and allowed to attach in a humidifed atmosphere of 5% CO2 in air at 37 deg C. Drugs were added 18-24 hours later and cell viability/proliferation measured at time intervals up to 48-72 hours post-drug addition when the experiment was terminated. […]
(§4) Cell viability was measured as follows: 20 μl of MTS solution (Promega) was added to wells and incubated at 37 deg C. for 3 hours during which time a coloured formazan product is generated in viable cells. […] Viable cell number was then measured by reading absorbance at 490 nm in a Dynex microtitre plate reader. […]

[6] = system: microvascular endothelial cells; assay: MTS cell viability/proliferation assay, microvascular endothelial cells; type: cell-based, human; settings: 1-10 μM
Description: as §3
(§5) Cells were seeded in the range 1.5×10^5-1.8×10^5 cells per ml of culture medium in 96 well microtitre plates and allowed to attach in a humidifed atmosphere of 5% CO2 in air at 37 deg C. Drugs were added 18-24 hours later and cell viability/proliferation measured at time intervals up to 48-72 hours post-drug addition when the experiment was terminated. Mean (±SE) values at each time point were obtained from wells in triplicate.
as §4

[7] = system: phospholipase C; assay: Quantitative HPLC assay of inositol phosphates (IP3 levels) in MDA MB 468 cells; type: cell-based, human; settings: [3H] inositol labelled cells
Text: The PH domain of PLC delta 1 has a higher affinity for the phosphoinositide IP3 compared to PIP2. IP3 is produced from PIP2 in response to activation of PLC. Since PIP2 is membrane-bound whereas IP3 is cytosolic, the activation of PLC can be visualised in living cells by the relocalisation of GFP-PH PLC delta 1 from membrane to cytosol. A proviso to this interpretation is that, in conditions where PIP2 levels decline relative to IP3, the net effect would be relocalisation of GFP-PH PLC delta 1 from membrane to cytosol. Thus, to exclude this possibility, quantitative phospholipid assays were performed. (In this analysis, cells were labelled with [^3H] inositol in inositol-free DMEM (In Vitrogen—Gibco) with dialysed FBS for 48 hours before exposure to sigma ligands. Cells were then lysed and subjected to quantitative HPLC assay). These assays confirmed that IP3 levels had risen in cells exposed to sigma antagonists (IP3 levels had risen to 240% and 166% of the level prior to provision of the test substance in response to IPAG and rimcazole respectively) but had not risen in cells exposed to sigma-1 or sigma-2 agonists. This confirmed activation of PLC by sigma antagonists.

[8] = system: MDA MB 468 cells; assay: MTS cell viability/proliferation assay, MDA MB 468 cells; type: cell-based, human; settings: MDA 468 cells; 1-10 μM
Description: as §3, §5, §4

[9] = system: sigma-1 compared to sigma-2 sites; settings: Abou-Gharbia et al 1993; cited from earlier work
[10] = system: human prostate epithelial cells; assay: MTS cell viability/proliferation assay, prostate epithelial cells; type: cell-based; settings: 1-10 μM
Description: as §3, §5, §4

[11] = system: adult dermal fibroblasts; assay: MTS cell viability/proliferation assay, adult dermal fibroblasts; type: cell-based, human; settings: 1-10 μM
Description: as §3, §5, §4

(+)-SKF 10,047
effect on cytosolic calcium levels (in words) [1]: little or no effect | effect on cytosolic calcium levels (in words) ([1]; listed as (+)-SKF-10,047): little or no rise

CC(C)=CCN1CCC2(C)c3cc(O)ccc3CC1C2C (single isomer, unassigned; (+)) [(+)-pentazocine]
increase in cytosolic calcium [2]: little or no effect | prevention of rimcazole- and IPAG-induced death and cytostasis [3]: completely prevented | % increase of cytosolic calcium (peak 340/380 nm fura-2 ratio) ([1]; 10 μM): 5±7% | % increase of cytosolic calcium (peak 340/380 nm fura-2 ratio) ([1]; 30 μM): −7±6% | effect on cytosolic calcium levels (in words) [1]: little or no rise; also recorded: little or no effect

ibogaine
relocalisation of GFP-PH PLC delta 1 from membrane to cytosol [4]: failed to produce this effect | effect on cytosolic calcium levels (in words) [1]: little or no rise; also recorded: fails to induce a significant rise

C[C@@H]1CN(CCCn2c3ccccc3c3ccccc32)C[C@H](C)N1 [rimcazole]
relocalisation of GFP-PH PLC delta 1 from membrane to cytosol [4]: pronounced relocalisation | localisation of GFP-PH PLC delta 1 ([4]; nominally calcium-free buffer (0 mM calcium)): remained membrane-localised | Cytotoxicity [5]: not cytotoxic | Cytotoxicity [6]: cytotoxic | IP3 levels, % of the level prior to provision of the test substance [7]: 166% | Cytotoxicity [8]: cytotoxic | selectivity for sigma-1 compared to sigma-2 sites [9]: approximately 5 fold | Cytotoxicity [10]: not cytotoxic | Cytotoxicity [11]: not cytotoxic | % increase of cytosolic calcium (peak 340/380 nm fura-2 ratio) ([1]; 30 μM): 92±8% | effect on cytosolic calcium levels (in words) [1]: increase cytosolic calcium levels
